# Test results from patent publication US20090117115A1 (priority 2006, published 2009).
# Columns and labels:
# [1] = system: gp120 hydrolysis by salivary IgA and serum IgA; assay type: biochemical, human
# [2] = molecular target: gp120 of HIV-1 strain BR004 (HIV-1, strain BR004)
# [3] = molecular target: gp120 of HIV-1 strain SF162 (HIV-1, strain SF162)
# [4] = molecular target: gp120 of HIV-1 strain ZA009 (HIV-1, strain ZA009)
Molecule,inhibition of gp120 hydrolysis by serum and salivary IgA [1],"IC80, HIV neutralization (% decrease of p24; PHA-stimulated PBMC hosts) [2]","IC80, HIV neutralization (% decrease of p24; PHA-stimulated PBMC hosts) [3]","IC80, HIV neutralization (% decrease of p24; PHA-stimulated PBMC hosts) [4]"
NC(=O)CI [iodoacetamide],did not detectably inhibit,–,–,–
pepstatin A,did not detectably inhibit,–,–,–
MAb b12 (antibody),–,> 20 µg/mL,14.1 µg/mL,> 20 µg/mL
O=C(O)CN(CCN(CC(=O)O)CC(=O)O)CC(=O)O [EDTA],did not detectably inhibit,–,–,–
"c1cnc2c(c1)ccc1cccnc12 [1,10 phenanthroline]",did not detectably inhibit,–,–,–
